Experimental data published in patent publication US11691989B2, “Macrocyclic indoles as Mcl-1 inhibitors” (ASCENTAGE PHARMA (SUZHOU) CO., LTD., priority 2018, dated 2023).

Experiments:
NCI-H929 cells = experiment: Cell viability assay (NCI-H929 cells), CCK-8; type: cell-based; conditions: 5% FBS
Description: Cell Viability Assay (NCI-H929 cells)
NCI-H929 cells were obtained from American Type Culture Collection (ATCC). Cells were maintained in the recommended culture medium (RPMI 1640) with 10% FBS and 0.05 mM BME at 37° C. and an atmosphere of 5% CO2.
The effect of Compounds on cell viability was determined using Cell Counting Kit-8 (CCK-8) assay according to the manufacturer's instructions. 95 μL of NCI-H929 cell suspension (20000 cells/well) in culture medium were seeded into 96-well plates and cultured 4 hrs. Each tested compound was serially diluted in DMSO, then 5 μL of the compound or DMSO was diluted in 95 μL medium once more. At last, 5 μL of the compound dilution was added to the corresponding well of the cell plate. After the addition of the tested compound, the cells were incubated at 37° C. in an atmosphere of 5% CO2 for 24 hrs. At the end, 10 μL of CCK-8 solution was added to each well of the plate and incubated for 1-4 hours. The plates were read at 450 nm on the microplate reader (BioTek Synergy 1MF). The readings were normalized to the vehicle cells, and the IC50 was calculated by nonlinear regression analysis using GraphPad Prism 6 software.

OPM-2 cells = experiment: Cell viability assay (OPM-2 cells), CCK-8; type: cell-based; conditions: 5% FBS
Description: Cell Viability Assay (OPM-2 cells)
OPM-2 cells were obtained from Deutsche Sammlung von Mikroorganismen and Zellkulturen GmbH (DSMZ). Cells were maintained in the recommended culture medium with 10% FBS at 37° C. and an atmosphere of 5% CO2.
The effect of representative Compounds of the Disclosure on cell viability was determined using Cell Counting Kit-8 (CCK-8) assay (Shanghai Life iLab Bio Technology) according to the manufacturer's instructions. Each tested compound was serially diluted in culture medium, 100 μL of the compound dilution was added into 96-well plates. 100 μL of an OPM-2 cell suspension (20000 cells/well) in culture medium were seeded into the corresponding well of the plate and the cells were incubated at 37° C. in an atmosphere of 5% CO2 for 24 hours. In the next day, 20 μL of CCK-8 solution was added to each well of the plate and incubated for 4 hours.
The plates were read at 450 nm on the microplate spectrophotometer (SpectraMax plus 384, Molecular devices). The readings were normalized to the vehicle cells, and the IC50 was calculated by nonlinear regression analysis using GraphPad Prism 6 software.

[1] = Microsome clearance assay, mouse; type: in vitro ADME; conditions: 0.5 mg/ml protein, 1 mM NADPH, 60 minutes; for microsomal CLint at 5 μM: male, CD-1, mouse, pooled liver microsomes, pH 7.4, mouse liver microsomes, read-out: Mouse Liver Microsome Clint (μL/min/mg protein)
Description: (§1) Representative Compounds of the Disclosure were tested in a microsome clearance assay. Pooled liver microsomes (20 mg/ml) from human, male Wister rat, and male CD-1 mouse were obtained from BD Bioscience (Franklin Lakes, N.J. USA). Incubation reaction mixtures contained a final concentration of 0.1M sodium phosphate buffer (pH 7.4), 0.5 mg/ml microsomal protein, 5 μM of test sample and 1 mM NADPH in a total volume of 400 μl. The incubations were done for 60 minutes and 300 μl of the mixtures was transferred to 150 μl of ice cold methanol to terminate reactions. After vortexes for 3 minutes and centrifuged at 4000 rpm at 4° C. for 10 minutes, the clear supernatant was used directly for analysis. The samples were analyzed by Applied Biosystems API 3200 Q TRAP LC/MS/MS system using electrospray ionization mode.

[2] = Microsome clearance assay, human; type: in vitro ADME; conditions: 0.5 mg/ml protein, 1 mM NADPH, 60 minutes; for microsomal CLint at 5 μM: human, pooled liver microsomes, pH 7.4, human liver microsomes, read-out: Human Liver Microsome Clint (μL/min/mg protein)
Description: as §1

[3] = biological target: Mcl-1 protein (residues 171-323) (Homo sapiens (Human), UniProt Q07820); experiment: Inhibition of Mcl-1 by fluorescence polarization (FP) competitive binding assay with FAM-Bid tracer; conditions: 2 nM FAM-Bid, 20 nM Mcl-1, 30 min, read-out: Mc1-1 (FP)
Chain of Mcl-1 protein (residues 171-323) (Q07820 171-323): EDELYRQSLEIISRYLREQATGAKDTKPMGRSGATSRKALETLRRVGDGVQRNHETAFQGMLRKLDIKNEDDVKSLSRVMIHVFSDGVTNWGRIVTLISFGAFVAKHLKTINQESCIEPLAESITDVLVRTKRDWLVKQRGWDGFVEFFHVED
Description: Inhibition of Mcl-1 by fluorescence polarization (FP) assay.
The method used a fluorescein labelled peptide (FAM-Bid) which binds to the Mcl-1 protein leading to an increased anisotropy measured in milli-polarization (mP) values using a plate reader.
A 10-points serial dilution of each compound was prepared in DMSO and 5 μL solution was transferred into flat bottomed, 96-well back plate (final DMSO concentration 5%). 120 μL of Buffer (PBS, 0.01% BGG (Sigma Cat. #SRE0011), 0.01% Triton X-100), containing the Fluorescein labelled peptide (Final concentration 2 nM) and Mcl-1 protein (final concentration 20 nM) was then added. […] 10-points dose response curves were plotted with GraphPad software using Sigmoidal Dose-Response Model and the IC50 values were determined by nonlinear regression fitting of the competition curves.

[4] = Microsome clearance assay, rat; type: in vitro ADME; conditions: 0.5 mg/ml protein, 1 mM NADPH, 60 minutes; for microsomal CLint at 5 μM: male, Wister, rat, pooled liver microsomes, pH 7.4, rat liver microsomes, read-out: Rat Liver Microsome Clint (μL/min/mg protein)
Description: as §1

Row | SMILES | IC50 (NCI-H929 cells; 24 hrs) | IC50 (OPM-2 cells; 24 hours) | Mouse Liver Microsome Clint (μL/min/mg protein) ([1]; mouse liver microsomes, 5 μM) | Human Liver Microsome Clint (μL/min/mg protein) ([2]; human liver microsomes, 5 μM) | IC50 [3] | Rat Liver Microsome Clint (μL/min/mg protein) ([4]; rat liver microsomes, 5 μM) | IC50 (NCI-H929 cells; Homo sapiens, NCI-H929, 24 h) | IC50 (OPM-2 cells; Homo sapiens, OPM-2, 24 h) | microsomal CLint at 5 μM [1] | microsomal CLint at 5 μM [2] | microsomal CLint at 5 μM [4]
1 | Cc1c(C(=O)O)n2c3ccc(Cl)c(c13)-c1c(nn(C)c1C)CN(S(C)(=O)=O)Cc1cc(n(C)n1)CSc1cc(c3ccc(F)cc3c1)OCCC2 [Cpd. No. 34, (S)-(Z)-1^5-chloro-9^6-fluoro-1^3,2^1,2^5,6^1-tetramethyl-4-(methylsulfonyl)-1^1H,2^1H, 6^1H-10-oxa-8-thia-4-aza-1(4,1)-indola-2(4,3),6(3,5)-dipyrazola-9(3,1)-naphthalenacyclotridecaphane-1^2-carboxylate] | 8520 nM | > 10000 nM | 110 μL/min/mg protein | <2.8 μL/min/mg protein | 2600 nM | 13.0 μL/min/mg protein | – | – | – | – | –
2 | Cc1ccc2c3c(C)c(C(=O)O)n2CCCOc2cc(cc4cc(F)ccc24)SCc2cc(nn2C)CSCc2nn(C)c(C)c2-c13 [Cpd. No. 22, (Z)-9^6-fluoro-1^3, 1^5,2^1,2^5,6^1-pentamethyl-1^1H,2^1H,6^1H-10-oxa-4,8-dithia-1(4,1)-indola-2(4,3), 6(3,5)-dipyrazola-9(3,1)-naphthalenacyclotridecaphane-1^2-carboxylic acid] | – | – | – | – | 15 nM | – | 61 nM | 73 nM | 32 µL/min/mg | 11.8 µL/min/mg | 30.8 µL/min/mg
3 | Cc1c(C(=O)O)n2c3ccc(Cl)c(c13)-c1c(nn(C)c1C)CSCc1cc(n(C(C)C)n1)CSc1cc(c3ccc(F)cc3c1)OCCC2 [Cpd. No. 17, (Z)-1^5-chloro-9^6-fluoro-6^1-isopropyl-1^3,2^1,2^5-trimethyl-1^1H,2^1H,6^1H-10-oxa-4,8-dithia-1(4,1)-indola-2(4,3),6(3,5)-dipyrazola-9(3,1)-naphthalenacyclotridecaphane-1^2-carboxylic acid] | – | – | – | – | – | – | 77 nM | 94 nM | 29.2 µL/min/mg | 19.4 µL/min/mg | 46.6 µL/min/mg
4 | Cc1c2c(nn1C)CSCc1cc(n(C)n1)CSc1cc(c3ccc(F)cc3c1)OCCCn1c(C(=O)O)c(C(F)(F)F)c3c-2c(Cl)ccc31 [Cpd. No. 24, (Z)-1^5-chloro-9^6-fluoro-2^1,2^5,6^1-trimethyl-1^3-(trifluoromethyl)-1^1H,2^1H,6^1H-10-oxa-4,8-dithia-1(4,1)-indola-2(4,3),6(3,5)-dipyrazola-9(3,1)-naphthalenacyclotridecaphane-1^2-carboxylic acid] | – | – | – | – | 15 nM | – | 3040 nM | 5420 nM | 28.8 µL/min/mg | 21.8 µL/min/mg | 122 µL/min/mg
5 | Cc1c(C(=O)O)n2c3ccc(Cl)c(c13)-c1c(nn3c1COCC3)CN(S(=O)(=O)C1CC1)Cc1cc(n(C)n1)CSc1cc(c3ccc(F)cc3c1)OCCC2 [Cpd. No. 31, (Z)-1^5-chloro-4-(cyclopropylsulfonyl)-9^6-fluoro-1^3, 6^1-di methyl-2^6,2^7-dihydro-1^1H,2^4H,6^1H-10-oxa-8-thia-4-aza-2(3,2)-pyrazolo[5,1-c][1,4]oxazina-1(4,1)-indola-6(3,5)-pyrazola-9(3,1)-naphthalenacyclotridecaphane-1^2-carboxylic acid] | – | – | – | – | 16 nM | – | 623 nM | 1940 nM | 45.2 µL/min/mg | 7.4 µL/min/mg | 33 µL/min/mg
6 | Cc1c(C(=O)O)n2c3ccc(Cl)c(c13)-c1c(nn(C)c1C)CN(CC(=O)N(C)C)Cc1cc(n(C)n1)CSc1cc(c3ccc(F)cc3c1)OCCC2 [Cpd. No. 54, (Z)-1^5-chloro-4-(2-(dimethylamino)-2-oxoethyl)-9^6-fluoro-1^3,2^1,2^5, 6^1--tetramethyl-1^1H,2^1H,6^1H-10-oxa-8-thia-4-aza-1(4,1)-indola-2(4,3),6(3,5)-dipyrazola-9(3,1)-naphthalenacyclotridecaphane-1^2-carboxylic acid] | – | – | – | – | 27 nM | – | 673 nM | 3480 nM | – | – | –
7 | Cc1c(C(=O)O)n2c3ccc(Cl)c(c13)-c1c(nn(C)c1C)CN(C(=O)c1nccn1C)Cc1cc(n(C)n1)CSc1cc(c3ccc(F)cc3c1)OCCC2 [Cpd. No. 44, (Z)-1^5-chloro-9^6-fluoro-1^3,2^1,2^5,6^1-tetramethyl-4-(1-methyl-1H-imidazole-2-carbonyl)-1^1H,2^1H,6^1H-10-oxa-8-thia-4-aza-1(4,1)-indola-2(4,3),6(3,5)-dipyrazola-9(3,1)-naphthalenacyclotridecaphane-1^2-carboxylic acid] | – | – | – | – | 23 nM | – | 780 nM | 1160 nM | – | – | –
8 | Cc1c(C(=O)O)n2c3ccc(Cl)c(c13)-c1c(nn(C)c1C)CN(c1ccccc1)Cc1cc(n(C)n1)CSc1cc(c3ccc(F)cc3c1)OCCC2 [Cpd. No. 55, (Z)-1^5-chloro-9^6-fluoro-1^3,2^1,2^5,6^1-tetramethyl-4-phenyl-1^1H,2^1H,6^1E-10-oxa-8-thia-4-aza-1(4,1)-indola-2(4,3),6(3,5)-dipyrazola-9(3,1)-naphthalenacyclotridecaphane-1^2-carboxylic acid] | – | – | – | – | 24 nM | – | 145 nM | 744 nM | – | – | –
9 | CNS(=O)(=O)N1Cc2cc(n(C)n2)CSc2cc(c3ccc(F)cc3c2)OCCCn2c(C(=O)O)c(C)c3c(c(Cl)ccc32)-c2c(nn(C)c2C)C1 [Cpd. No. 38, (Z)-1^5-chloro-9^6-fluoro-1^3,2^1,2^5,6^1-tetramethyl-4-(N-methylsulfamoyl)-1^1H,2^1H,6^1H-10-oxa-8-thia-4-aza-1 (4,1)-indola-2(4,3),6(3,5)-dipyrazola-9(3,1)-naphthalenacyclotridecaphane-1^2-carboxylic acid] | – | – | – | – | 7 nM | – | 270 nM | 543 nM | – | – | –
10 | Cc1c2c(nn1C)CSCc1cc(n(C)n1)CSc1cc(c3ccc(F)cc3c1)OCCCn1c(C(=O)O)c(C#N)c3c-2c(Cl)ccc31 [Cpd. No. 25, (Z)-1^5-chloro-1^3-cyano-9^6-fluoro-2^1,2^5,6^1-trimethyl-1^1H,2^1H,6^1H-10-oxa-4,8-dithia-1(4,1)-indola-2(4,3),6(3,5)-dipyrazola-9(3,1)-naphthalenacyclotridecaphane-1^2-carboxylic acid] | – | – | – | – | 21 nM | – | 4290 nM | 5970 nM | – | – | –
11 | Cc1c(C(=O)O)n2c3ccc(Cl)c(c13)-c1c(nn(C)c1C)CN(S(=O)(=O)c1cccnc1)Cc1cc(n(C)n1)CSc1cc(c3ccc(F)cc3c1)OCCC2 [Cpd. No. 41, (Z)-1^5-chloro-9^6-fluoro-1^3,2^1,2^5,6^1-tetramethyl-4-(pyridin-3-ylsulfonyl)-1^1H,2^1H,6^1H-10-oxa-8-thia-4-aza-1 (4,1)-indola-2(4,3),6(3,5)-dipyrazola-9(3,1)-naphthalenacyclotridecaphane-1^2-carboxylic acid] | – | – | – | – | 17 nM | – | 198 nM | 275 nM | – | – | –
